This is an account of results in patent publication US8461160B2, “Dihydropyrimidinones” (Hoffmann-La Roche, Inc., priority 2009, dated 2013).

Usually IC50 stands for the concentration needed to halve the response being measured.

This test deals with T1, BACE2 (Homo sapiens, UniProt Q9Y5Z0).
T1 construct: BACE2 enzyme ectodomain (derived from plasmid “pET17b-T7-hu proBACE2”) was prepared as described in Ostermann et al; T7 tag (N); made in house
T1 sequence (Q9Y5Z0 21-473 limits assumed): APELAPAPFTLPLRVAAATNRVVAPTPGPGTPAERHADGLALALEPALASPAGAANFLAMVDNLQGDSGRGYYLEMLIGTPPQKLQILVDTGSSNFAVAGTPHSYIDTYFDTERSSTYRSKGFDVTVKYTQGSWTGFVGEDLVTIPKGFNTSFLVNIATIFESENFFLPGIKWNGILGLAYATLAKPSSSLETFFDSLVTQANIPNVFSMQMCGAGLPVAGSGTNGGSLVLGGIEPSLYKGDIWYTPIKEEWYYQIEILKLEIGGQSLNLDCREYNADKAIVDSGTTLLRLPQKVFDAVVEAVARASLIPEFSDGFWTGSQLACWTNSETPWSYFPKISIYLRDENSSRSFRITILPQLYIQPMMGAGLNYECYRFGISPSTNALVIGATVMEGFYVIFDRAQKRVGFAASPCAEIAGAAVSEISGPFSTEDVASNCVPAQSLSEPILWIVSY
Description: Fluorescent-peptide cleavage assay for BACE2 inhibition. Conditions: BACE2 enzyme ectodomain, fluorescent peptide WS EVNLD AEFRC-MR121, assay buffer pH 4.5, room temperature. Format: biochemical. Put shortly:
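Pro-enzyme BACE2 was activated at 80 nM for 1 h at room temperature in 100 mM Na-acetate, 20 mM EDTA, 0.05% BSA, pH 4.5, then preincubated 10 min with compound. IC50 from sigmoidal dose-response fit.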

In the case of `CN1C(=O)C[C@]2(CCc3ccc(NC(=O)c4ncccc4C(F)(F)F)cc32)N=C1N` [Example 130, N-[(1S)-2′-amino-1′-methyl-6′-oxo-2,3,5′,6′-tetrahydro-1′H-spiro[indene-1,4′-pyrimidin]-6-yl]-3-trifluoromethyl-pyridine-2-carboxamide], it took 1.34 µM to reach half-maximal inhibition (IC50).

Regarding `CN1C(=O)C[C@@](C)(c2cccc(NC(=O)c3ccc(Cl)nc3)c2)N=C1N` [Example 19, N-[3-((S)-2-Amino-1,4-dimethyl-6-oxo-1,4,5,6-tetrahydro-pyrimidin-4-yl)-phenyl]-6-chloro-nicotinamide], the IC50 is 0.549 µM.

`CN1C(=O)C[C@@](C)(c2cccc(NC(=O)c3coc(-c4ccccc4)n3)c2)N=C1N` [Example 71, 2-Phenyl-oxazole-4-carboxylic acid [3-((S)-2-amino-1,4-dimethyl-6-oxo-1,4,5,6-tetrahydro-pyrimidin-4-yl)-phenyl]-amide] yielded an IC50 of 1.31 µM.

`CN1C(=O)C[C@]2(CCc3ccc(NC(=O)c4ccccn4)cc32)N=C1N` [Example 128, N-[(1S)-2′-amino-1′-methyl-6′-oxo-2,3,5′,6′-tetrahydro-1′H-spiro[indene-1,4′-pyrimidin]-6-yl]pyridine-2-carboxamide] showed a 50% inhibitory concentration (IC50) of 1.67 µM. This IC50 and that of the compound before are within 1.5-fold of each other.

`CN1C(=N)N[C@](C)(c2cc(NC(=O)c3ccc(C(F)(F)F)cn3)ccc2F)CC1=O` [Example 48, 5-Trifluoromethyl-pyridine-2-carboxylic acid [3-((S)-2-amino-1,4-dimethyl-6-oxo-1,4,5,6-tetrahydro-pyrimidin-4-yl)-4-fluoro-phenyl]amide]: the half-maximal inhibitory concentration (IC50) amounted to 0.009 µM.

`CN1C(=O)C[C@@](C)(c2cccc(NC(=O)c3ccc(=O)[nH]n3)c2)N=C1N` [Example 23, 6-Oxo-1,6-dihydro-pyridazine-3-carboxylic acid [3-((S)-2-amino-1,4-dimethyl-6-oxo-1,4,5,6-tetrahydro-pyrimidin-4-yl)-phenyl]amide] showed an IC50 of 0.058 µM.

In turn, `Cc1cc(C(=O)Nc2cccc([C@]3(C)CC(=O)N(C)C(N)=N3)c2)nn1C` [Example 7, 1,5-Dimethyl-1H-pyrazole-3-carboxylic acid [3-((S)-2-amino-1,4-dimethyl-6-oxo-1,4,5,6-tetrahydro-pyrimidin-4-yl)-phenyl]amide] yielded a concentration for half-maximal inhibition (IC50) of 1.01 µM. Against the preceding compound, the IC50 is about 17-fold higher.

Take `CN1C(=O)C[C@@](C)(c2cccc(NC(=O)c3nccc4ccccc34)c2)N=C1N` [Example 56, Isoquinoline-1-carboxylic acid [3-((S)-2-amino-1,4-dimethyl-6-oxo-1,4,5,6-tetrahydro-pyrimidin-4-yl)-phenyl]-amide]: the IC50 is 2.98 µM.

In the case of `CN1C(=O)C[C@@](C)(c2cccc(NC(=O)c3ccon3)c2)N=C1N` [Example 81, Isoxazole-3-carboxylic acid [3-((S)-2-amino-1,4-dimethyl-6-oxo-1,4,5,6-tetrahydro-pyrimidin-4-yl)-phenyl]-amide], the midpoint of inhibition, the IC50, lay at 0.17 µM.

Take `CN1C(=O)C(C)(C)[C@@](C)(c2cc(NC(=O)c3ccn(C)n3)ccc2F)N=C1N` [Example 98, 1-Methyl-1H-pyrazole-3-carboxylic acid [3-((S)-2-amino-1,4,5,5-tetramethyl-6-oxo-1,4,5,6-tetrahydro-pyrimidin-4-yl)-4-fluoro-phenyl]amide]: it took 0.035 µM to reach half-maximal inhibition (IC50).

In turn, `Cc1ccnc(C(=O)Nc2cccc([C@]3(C)CC(=O)N(C)C(N)=N3)c2)c1` [Example 30, 4-Methyl-pyridine-2-carboxylic acid [3-((S)-2-amino-1,4-dimethyl-6-oxo-1,4,5,6-tetrahydro-pyrimidin-4-yl)-phenyl]-amide] registered a half-maximal inhibitory concentration (IC50) of 0.15 µM.

In turn, `CN1C(=O)C[C@@](C)(c2ccc(F)c(NC(=O)c3ccc(Cl)cn3)c2)N=C1N` [Example 125, 5-Chloro-pyridine-2-carboxylic acid [5-((S)-2-amino-1,4-dimethyl-6-oxo-1,4,5,6-tetrahydro-pyrimidin-4-yl)-2-fluoro-phenyl]amide] showed a half-inhibitory concentration (IC50) of 0.31 µM. This IC50 lies about 2.1-fold higher than the previous one.

For `CN1C(=O)C[C@@](C)(c2cccc(NC(=O)c3ccccc3)c2)N=C1N` [Example 34, N-[3-((S)-2-Amino-1,4-dimethyl-6-oxo-1,4,5,6-tetrahydro-pyrimidin-4-yl)-phenyl]-benzamide], the IC50 stood at 0.2 µM.

`CN1C(=O)C[C@@](C)(c2cc(NC(=O)c3ncc(Cl)cn3)ccc2F)N=C1N` [Example 46, 5-Chloro-pyrimidine-2-carboxylic acid [3-((S)-2-amino-1,4-dimethyl-6-oxo-1,4,5,6-tetrahydro-pyrimidin-4-yl)-4-fluoro-phenyl]amide] displayed an IC50 of 0.014 µM.

`CC[C@@]1(c2cccc(NC(=O)c3ccc(Cl)cn3)c2)CC(=O)N(C)C(N)=N1` [Example 39, 5-Chloro-pyridine-2-carboxylic acid [3-((S)-2-amino-4-ethyl-1-methyl-6-oxo-1,4,5,6-tetrahydro-pyrimidin-4-yl)-phenyl]-amide] registered a 50% inhibitory concentration (IC50) of 0.011 µM.

`CN1C(=O)C[C@@](C)(c2cccc(NC(=O)c3ccc(CO)cn3)c2)N=C1N` [Example 16, 5-Hydroxymethyl-pyridine-2-carboxylic acid [3-((S)-2-amino-1,4-dimethyl-6-oxo-1,4,5,6-tetrahydro-pyrimidin-4-yl)-phenyl]amide] showed an IC50 of 0.458 µM.

Regarding `Cc1cc(Cl)cnc1C(=O)Nc1ccc(F)c([C@@]2(C)N=C(N)N(C)C(=O)C2(C)C)c1` [Example 99, 5-Chloro-3-methyl-pyridine-2-carboxylic acid [3-((S)-2-amino-1,4,5,5-tetramethyl-6-oxo-1,4,5,6-tetrahydro-pyrimidin-4-yl)-4-fluoro-phenyl]amide], the IC50 is 0.013 µM.

Compound `CN1C(=O)C[C@@](C)(c2cccc(NC(=O)c3ccn(CC(F)(F)F)n3)c2)N=C1N` [Example 73, 1-(2,2,2-Trifluoro-ethyl)-1H-pyrazole-3-carboxylic acid [3-((S)-2-amino-1,4-dimethyl-6-oxo-1,4,5,6-tetrahydro-pyrimidin-4-yl)-phenyl]-amide] returned a half-maximal inhibitory concentration (IC50) of 2.07 µM.

Take `CCN1C(=O)C[C@@](C)(c2cccc(NC(=O)c3ccc(Cl)cn3)c2)N=C1N` [Example 49, 5-Chloro-pyridine-2-carboxylic acid [3-((S)-2-amino-1-ethyl-4-methyl-6-oxo-1,4,5,6-tetrahydro-pyrimidin-4-yl)-phenyl]amide]: the half-inhibitory concentration (IC50) was found to be 0.015 µM.

In turn, `CCOc1cc(C(F)(F)F)cnc1C(=O)Nc1cccc([C@]2(C)CC(=O)N(C)C(N)=N2)c1` [Example 74, 3-Ethoxy-5-trifluoromethyl-pyridine-2-carboxylic acid [3-((S)-2-amino-1,4-dimethyl-6-oxo-1,4,5,6-tetrahydro-pyrimidin-4-yl)-phenyl]-amide] came in with a concentration for half-maximal inhibition (IC50) of 0.079 µM.

The compound `CN1C(=O)C[C@@](C)(c2cccc(NC(=O)c3c[nH]c(=O)cn3)c2)N=C1N` [Example 36, 5-Oxo-4,5-dihydro-pyrazine-2-carboxylic acid [3-((S)-2-amino-1,4-dimethyl-6-oxo-1,4,5,6-tetrahydro-pyrimidin-4-yl)-phenyl]-amide] displayed an IC50 of 0.042 µM. Against the preceding compound, the IC50 is about 1.9-fold lower.

`CN1C(=O)C[C@@](C)(c2cccc(NC(=O)c3cc4ccccc4cn3)c2)N=C1N` [Example 57, Isoquinoline-3-carboxylic acid [3-((S)-2-amino-1,4-dimethyl-6-oxo-1,4,5,6-tetrahydro-pyrimidin-4-yl)-phenyl]amide] had a 50% inhibitory concentration (IC50) of 0.11 µM.

For `CN1C(=O)C[C@@](C)(c2cccc(NC(=O)c3ccc(Cl)cn3)c2)N=C1N` [Example 10, 5-Chloro-pyridine-2-carboxylic acid [3-((S)-2-amino-1,4-dimethyl-6-oxo-1,4,5,6-tetrahydro-pyrimidin-4-yl)-phenyl]amide], the concentration for half-maximal inhibition (IC50) is 0.007 µM. This IC50 is about 16-fold lower than that of the compound before.

Turning to `C[C@@]1(c2cccc(NC(=O)c3ccc(Cl)cn3)c2)CC(=O)N(Cc2ccccc2)C(N)=N1` [Example 50, 5-Chloro-pyridine-2-carboxylic acid [3-((S)-2-amino-1-benzyl-4-methyl-6-oxo-1,4,5,6-tetrahydro-pyrimidin-4-yl)-phenyl]amide], the IC50 was 0.01 µM. The IC50 values of the last two compounds are within 1.5-fold of each other.

`CN1C(=O)C(C)(C)[C@@](C)(c2cc(NC(=O)c3ncc(C(F)(F)F)cc3Cl)ccc2F)N=C1N` [Example 118, 3-Chloro-5-trifluoromethyl-pyridine-2-carboxylic acid [3-((S)-2-amino-1,4,5,5-tetramethyl-6-oxo-1,4,5,6-tetrahydro-pyrimidin-4-yl)-4-fluoro-phenyl]amide] had a concentration for half-maximal inhibition (IC50) of 0.019 µM. Against the preceding compound, the IC50 is about 1.9-fold higher.

The compound `CN1C(=O)C(C)(C)[C@@](C)(c2cc(NC(=O)c3cn(C)cn3)ccc2F)N=C1N` [Example 112, 1-Methyl-1H-imidazole-4-carboxylic acid [3-((S)-2-amino-1,4,5,5-tetramethyl-6-oxo-1,4,5,6-tetrahydro-pyrimidin-4-yl)-4-fluoro-phenyl]amide] returned an IC50 of 1.26 µM.

`Cc1cnc(C(=O)Nc2cccc([C@]3(C)CC(=O)N(C)C(N)=N3)c2)cn1` [Example 22, 5-Methyl-pyrazine-2-carboxylic acid [3-((S)-2-amino-1,4-dimethyl-6-oxo-1,4,5,6-tetrahydro-pyrimidin-4-yl)-phenyl]amide] registered a concentration for half-maximal inhibition (IC50) of 0.123 µM.

For the compound `CN1C(=O)C[C@@](C)(c2cccc(NC(=O)c3cc4cccnc4[nH]3)c2)N=C1N` [Example 78, 1H-Pyrrolo[2,3-b]pyridine-2-carboxylic acid [3-((S)-2-amino-1,4-dimethyl-6-oxo-1,4,5,6-tetrahydro-pyrimidin-4-yl)-phenyl]-amide], half-maximal inhibition (IC50) was put at 0.8 µM.
